What was measured:
α-synuclein = conditions: cited from earlier work
brain metastases = conditions: added to whole-brain radiation, cited from earlier work
[1] = cited from earlier work
[2] = tested on: NDRG1 KO MDA-MB-231Br cells; experiment: NDRG1 CRISPR Cas9 knockout versus vector control; format: cell-based
Experimental: (§1) Upon further analysis of the RPPA data, the phosphorylation of N-Myc Downstream Regulated 1 (NDRG1) was noted to be relevant in four major pathways related to autophagy after 24 hours of metixene treatment. […] To confirm the role of NDRG1 in autophagy, NDRG1 knockout (KO) cells were generated using CRISPR Cas9 in MDA-MB-231Br cells. The cells were then treated with metixene in a dose-dependent manner and compared to cells transfected with a vector control.
(§2) The inventors then checked whether NDRG1 is further involved in the apoptotic cell death induced by metixene. A cell viability assay was conducted to check the effect of NDRG1 KO versus vector control upon metixene dose-dependent treatment. […] Upon NDRG1 KO, autophagy is completed, and the caspase-mediated pathway of apoptosis is not activated. This mechanism applies to primary brain cancers, such as glioblastoma (FIG. 4A), and other metastatic cancers to the brain, such as lung cancer (FIG. 4B) and melanoma (FIG. 4C).

[3] = tested on: caspase 3/7 activity in BT-474Br; experiment: Caspase 3/7 assay; format: cell-based
LC3 in BT-474Br cells = experiment: LC3 puncta immunofluorescence; format: cell-based; conditions: 10 μM; P=0.015
Experimental: (§3) The efficacy of metixene in inducing autophagy was tested in two primary breast and brain metastatic cancer cell lines, using BT-474 and BT-474Br and MDA-MB-231 and MDA-MB-231Br, respectively.

[4] = tested on: H2030Br lung cancer brain metastatic cells; experiment: Cell killing in lung cancer brain metastatic cells; format: cell-based; conditions: increasing amount of metixene
Experimental: (§4) FIGS. 4A-4C. Metixene induces cell death in primary brain tumors and other metastatic cancers. (FIG. 4A) CT2A glioma cells were treated with increasing amount of metixene. […] (FIG. 4B) H2030Br lung cancer brain metastatic cells were treated with increasing amount of metixene. […] (FIG. 4C) WM3734 melanoma brain metastatic cells were treated with increasing amount of metixene.
as §2

BT-474Br = experiment: Cell viability assay; format: cell-based
Experimental: (§5) Following the determination of an appropriate range for treatment of BCBM cells, the anti-cancer activity of metixene was evaluated in the brain metastatic HER2-positive BT-474Br and the triple-negative MDA-MB-231Br cell lines, using increasing concentrations of the drug at different time points.

MDA-MB-231Br = experiment: Cell viability assay; format: cell-based
Experimental: as §5

[5] = tested on: caspase 3/7 activity in MDA-MB-231Br; experiment: Caspase 3/7 assay; format: cell-based
[6] = tested on: WM3734 melanoma brain metastatic cells; experiment: Cell killing in melanoma brain metastatic cells; format: cell-based; conditions: increasing amount of metixene
Experimental: as §4, §2

[7] = tested on: BT-474Br intracranial tumors; experiment: Stereotactic intracranial model of BCBM; format: in vivo, nude mice
Experimental: (§6) All animal studies were completed per the National Institutes of Health guidelines on the care and use of laboratory animals for research purposes. The Institutional Committee on Animal Use at Northwestern University approved the protocols. Six- to eight-week-old athymic, immunodeficient (nu/nu) female mice were obtained from Charles River and maintained in a specific pathogen-free facility. For mammary gland injections, 1×10^6 HCC1954 cells were injected in the inguinal mammary fat pad of nude female mice. For the stereotactic intracranial injection, mice were placed in a stereotactic frame, and 5×10^5 BT-474Br cells were intracranially injected at a depth of 3 mm. For intracarotid artery injections, 1×10^6 MDA-MB-231Br cells were injected using a 31-gauge BD insulin syringe into the lumen of internal carotid artery.
After showing its anti-tumor effect in vivo, whether metixene could improve survival in different preclinical models of brain metastases was tested. A stereotactic intracranial injection of HER2-positive BT474-Br cells was performed in nude mice. After 10 days of recovery and tumor growth, the mice were divided into two groups that were treated intraperitoneally: control (25% captisol, n=7); and metixene (1.0 mg/kg, n=8). The dosages were given three times per week.

[8] = tested on: BT-474 and BT-474Br and MDA-MB-231 and MDA-MB-231Br; experiment: Autophagy induction with increasing concentration (LC3, SQSTM1/p62); format: cell-based
Experimental: as §3

[9] = tested on: HCC1954 mammary fat pad tumors; experiment: Mammary fat pad tumor model; format: in vivo, nude mice
Experimental: as §6
The efficacy of metixene hydrochloride was evaluated using an in vivo model. HCC1954 cells were injected into the mammary fat pads of nude mice. After the formation and establishment of 5 mm breast tumors, mice were randomly divided into three groups whereby treatment was administered intraperitoneally: control (25% captisol); metixene (0.1 mg/kg); and metixene (1.0 mg/kg). The dosages were given three times a week. After 6 weeks, fat pad tumors were collected and analyzed (FIG. 2A).

[10] = tested on: LC3 in MDA-MB-231-Br cells; experiment: LC3 conversion and autophagy flux; format: cell-based; conditions: 10 μM, time course
Experimental: Next, MDA-MB-231-Br cells were treated with metixene for different durations to determine the mechanism of autophagic signaling in brain metastatic cells. […] Afterward, autophagy flux changes after ten minutes, one hour, and three hours of treatment were tested. LC3 II levels in control (untreated) cells, cells treated with chloroquine (25 μM), cells treated with metixene (10 μM), and cells treated with metixene and chloroquine were compared.

CT2A glioma cells = experiment: Cell killing in glioma cells; format: cell-based; conditions: increasing amount of metixene
Experimental: as §4, §2

[11] = tested on: cleaved caspase-3 in BT-474Br; experiment: Cleaved caspase-3 protein expression; format: cell-based; conditions: 24 hours
Excerpt: (§7) Next, whether metixene induces apoptotic cell death was investigated. […] Immunofluorescence analysis of metixene-treated BT-474Br and MDA-MB-231Br cells confirmed increased cleaved caspase-3 expression.

[12] = tested on: cleaved caspase-3 in MDA-MB-231Br; experiment: Cleaved caspase-3 protein expression; format: cell-based; conditions: 24 hours
Excerpt: as §7

HCC1954 = experiment: CNS drug screen, cell viability, trastuzumab-resistant line; format: cell-based; conditions: 25 μM
Experimental: (§8) The Prestwick CNS Drug Library of 320 CNS compounds was purchased from Prestwick Chemical Libraries for screening. Cells were seeded at a density of 5000 cells/well in clear, flatbottomed, black-walled, 96-well plates. Each compound from the library was added at a final concentration of 25 μM per well 1 day after seeding of cells. After three days of treatment, cell viability was measured using CellTiter-Glo® Luminescent Cell Viability Assay (Promega) according to the manufacturer's instructions.
HER2-positive breast cancer has the greatest risk for intracranial-specific metastases. When metastatic cancer cells colonize the brain, they develop resistance to systemic therapies, such as trastuzumab. For this reason, another blinded screen was conducted on a metastatic breast cancer cell line that is trastuzumab-resistant, HCC1954. At 25 μM, the screen yielded five hits that caused a nearly complete loss of cell viability. […] Next, the effect of metixene on different metastatic breast cancer cell lines was determined by measuring its IC50 in two HER2-positive cell lines (BT474 and HCC1954) and five triple-negative breast cancer cell lines (MDAMB-231-Br, HCC1806, HS578T, HCC3153, and SUM159) after 72 hours of treatment.

NDRG1 in MDA-MB-231Br = experiment: NDRG1 and pNDRG1 expression; format: cell-based; conditions: dose-dependent treatment
Experimental: as §1

[13] = tested on: BT-474Br, a HER2-positive BCBM cell line; experiment: CNS drug screen, CellTiter-Glo cell viability; format: cell-based; conditions: 25 μM, 72 hours, Cell Titer Glo
Experimental: as §8
A blinded screen was conducted on a drug library comprising 320 structurally diverse drugs that are FDA approved, blood brain barrier (BBB) permeable, and known for their pharmacological effects on the CNS to identify potential hits for therapeutic intervention against brain metastases. Using BT-474Br, a HER2-positive BCBM cell line, the efficacy of the 320 compounds were screened at a standard concentration of 25 μM. After 72 hours of treatment, a cell viability assay was performed using Cell Titer Glo to determine the number of viable, metabolically active cells in culture. The screen yielded five different therapeutic agents that caused a vast reduction (>95%) in cell viability in vitro.

[14] = tested on: MDA-MB-231-Br brain metastases; experiment: Intracarotid model of multiple brain metastases; format: in vivo, nude mice; conditions: 1.0 mg/kg intraperitoneally three times per week, p=0.037
Experimental: as §6
The model was established through a systemic intracarotid injection of triple-negative MDA-MB-231-Br cells in nude mice. Ten days after injection of tumor cells, mice were randomly divided into two groups and treated intraperitoneally with: control (25% captisol, n=5) and metixene (1.0 mg/kg, n=6). The treatments were given three times per week.

[15] = dose-dependent treatment, Western blot

Q: For `C=CCNC1=C2C[C@@H](C)C[C@H](OC)[C@H](O)[C@@H](C)/C=C(\C)[C@H](OC(N)=O)[C@@H](OC)/C=C\C=C(/C)C(=O)NC(=CC1=O)C2=O` [17-AAG], which “reduction of α-synuclein in cells” value (α-synuclein) is on record?
A: Its value is “effective in reducing α-synuclein in cells”.

Q: What does the source list for `CCN(CC)CCCC(C)Nc1ccnc2cc(Cl)ccc12` (stereo not drawn) [chloroquine]?
A: toxicity (brain metastases; vs controls): no increase in toxicity; overall survival (brain metastases; controls 7.42 months, P=0.839): 10.2 months; BBB permeability [1]: low permeability of the BBB

Q: With `CN1CCCC(CC2c3ccccc3Sc3ccccc32)C1` (stereo not drawn) [metixene] as the molecule, how does the “apoptosis (caspase 3/7) in NDRG1 KO cells vs control” value ([2]; 10 μM (P=0.0078) and 15 μM (P<0.0001)) read?
A: The value was “significantly reduced”.

Q: What about the “viability of NDRG1 KO cells vs control cells” value ([2]; 10 μM (P=0.0271) and 20 μM (P<0.0001)) of the same molecule?
A: Its value is “significantly more viable”.

Q: What about the “LC3II levels in NDRG1 KO cells vs vector control” value [2, 15] of the same molecule?
A: Its value is “decreased significantly”.

Q: What about the “p62 levels in NDRG1 KO cells vs vector control” value [2, 15] of the same molecule?
A: The value was “significant decrease”.

Q: And the “caspase 3/7 activity” value ([3]; 24 hours)?
A: Its value is “significant increase in caspase 3/7 activity”.

Q: What about the “caspase 3/7 activity” value ([3]; 48 hours, 15 μM) of the same molecule?
A: The value was “increased significantly”.

Q: And the LC3 puncta accumulation (LC3 in BT-474Br cells)?
A: Its LC3 puncta accumulation is “significant increase in the accumulation of puncta”.

Q: What about the “concentration at which potent cell-killing effect begins” value (“concentration” below) [4] of the same molecule?
A: The value was 10 µM.

Q: What about the cell viability (BT-474Br; 24 hours) of the same molecule?
A: The cell viability was “significant reduction in cell viability”.

Q: What about the cell viability (BT-474Br; 48 hours, 15 μM) of the same molecule?
A: Its cell viability is “significantly decreased”.

Q: What about the cell viability (MDA-MB-231Br; 24 hours) of the same molecule?
A: The cell viability was “significant reduction in cell viability”.

Q: And the cell viability (MDA-MB-231Br; 48 hours, 5, 10, and 15 μM)?
A: The cell viability was “significantly decreased”.

Q: What about the “caspase 3/7 activity” value ([5]; 24 hours, 10 μM and 15 μM) of the same molecule?
A: The value was “significant increase in caspase 3/7 activity”.

Q: And the “caspase 3/7 activity” value ([5]; 48 hours, 15 μM)?
A: The value was “increased significantly”.

Q: What about the “concentration” value [6] of the same molecule?
A: Its value is 10 µM.

Q: What about the BBB permeability [1] of the same molecule?
A: The BBB permeability was “BBB permeable”.

Q: And the median survival ([7]; 1.0 mg/kg intraperitoneally three times per week, control 52 days, p=0.0008)?
A: Its median survival is 64 days.

Q: And the “luciferase signal in the brain” value ([7]; 1.0 mg/kg, after six weeks of treatment, vs controls, p=0.02)?
A: Its value is “significant reduction”.

Q: What about the “LC3 II levels” value ([8]; increasing concentration) of the same molecule?
A: Its value is “increased as the concentration of metixene increased”.

Q: What about the “ratio of LC3 II to I levels” value ([8]; increasing concentration) of the same molecule?
A: The value was “trended upwards with increasing concentration”.

Q: And the SQSTM1/p62 levels ([8]; increasing concentration (FIG. 3F))?
A: Its SQSTM1/p62 levels is “increased with increasing concentration”.

Q: And the tumor weight ([9]; 0.1 mg/kg intraperitoneally three times a week, 6 weeks, P=0.0043)?
A: Its tumor weight is “decreased significantly”.

Q: And the “percent of cleaved caspase-3-positive cells in tumor sections” value ([9]; 0.1 mg/kg, p=0.001)?
A: The value was “significant increase”.

Q: What about the tumor weight ([9]; 1.0 mg/kg intraperitoneally three times a week, 6 weeks, P=0.0004) of the same molecule?
A: Its tumor weight is “decreased significantly”.

Q: And the “percent of cleaved caspase-3-positive cells in tumor sections” value ([9]; 1.0 mg/kg, p=0.0002)?
A: Its value is “significant increase”.

Q: What about the tumor volume ([9]; 0.1 and 1.0 mg/kg intraperitoneally three times a week, 6 weeks, p<0.0001) of the same molecule?
A: The tumor volume was “decreased significantly”.

Q: And the “conversion of LC3 I to LC3 II” value [10]?
A: The value was “increase as early as ten minutes”.

Q: And the “concentration” value (CT2A glioma cells)?
A: The value was 5 µM.

Q: And the “cleaved caspase-3 protein levels” value [11]?
A: Its value is “markedly increase”.

Q: And the “cleaved caspase-3 protein levels” value [12]?
A: The value was “markedly increase”.

Q: And the “loss of cell viability” value (HCC1954)?
A: Its value is “top hit in both screens”.

Q: And the “expression of NDRG1 and pNDRG1” value (NDRG1 in MDA-MB-231Br)?
A: Its value is “increased significantly in a dose-dependent manner”.

Q: What about the “reduction in cell viability” value [13] of the same molecule?
A: The value was “top hit in both screens”.

Q: What about the median survival ([14]; control 44 days) of the same molecule?
A: The median survival was 67 days.

Q: And the “increase in survival in comparison to controls” value [14]?
A: Its value is 52%.

From US20260174674A1, “INCOMPLETE AUTOPHAGY INDUCTION FOR THE TREATMENT OF CANCER” (Northwestern University, priority 2022, published 2026)
